# Experiments:
# SDF-1 = assay: Migration assay: Jurkat cells towards SDF-1 (Transwell); format: cell-based, human; conditions: for Inhibition of SDF-1/CXCR4 mediated migration of Jurkat cells: 1, 5, 10 and 50 μM (FIGS. 19A-B)
# Method: (§1) 600 μl of RPMI medium was added to the lower chambers of Transwell® transmigration plates, supplemented with 2 μg/ml of MIP3a, 100 ng/ml of SDF-1 or 10 ng/ml of MCP-1. The tested small molecule was added to the lower chambers at the indicated concentration, except in control samples. The MIP3a, SDF-1 or MCP-1 was incubated with the small molecule for 30 minutes at room temperature before the initiation of the migration assay. Following 30 minutes of incubation 2×10^5 immune cells were added to the upper chambers of the transmigration plates in a total volume of 100 μl. Cells which migrated within 3 hours to the bottom chamber of the Transwell® plates were counted using a FACScalibur™ flow cytometer.
# To evaluate migration towards SDF-1, Jurkat cells were re-suspended in RPMI medium containing 1% fetal calf serum (FCS).
# [1] = system: MV4-11 human acute myeloid leukemia cells; assay: Cancer cell viability assay, propidium iodide staining (FACS); format: cell-based
# Method: (§2) The cancer cells were incubated in cell medium with 1% fetal calf serum (FCS) at a concentration of 2×10^5 cells/well at a final volume of 250 μl in 96-well plate. The tested small molecule was added to the cells at the indicated concentrations. The cells were incubated for 24 hours and the number of dead and viable cells was then evaluated by fluorescence-activated cell sorting (FACS), using propidium iodide (PI) staining. The IC50 of the small molecule-induced cell death was determined using GraphPad Prism software.
# In order to assess the effect of BKT300 on cancer cells viability, the in vitro effect on MV4-11 human acute myeloid leukemia cells was evaluated. The MV4-11 cancer cells were incubated in RPMI cell medium with 1% fetal calf serum (FCS) at a concentration of 2×10^5 cells/well at a final volume of 250 μl in 96-well plate. BKT300 was added to the cells at the indicated concentrations. The cells were incubated for 24 hours and the number of dead and viable cells was then evaluated by fluorescence-activated cell sorting (FACS), using propidium iodide (PI) staining. The IC50 of […] cell death was determined using GraphPad Prism software.
# U937 cells [2] = assay: Apoptosis and cell viability by annexin-V/PI assay in U937 cells; format: cell-based; conditions: U937, 24 hours; for Effect on apoptosis: any of the tested concentrations (0.1, 1 and 10 μM); for Concentration at which an effect on apoptosis was observed / Concentration at which an effect on cell viability was observed: tested 0.1, 1 and 10 μM
# Method: (§3) U937 cells were incubated for 24 hours with RPMI medium 1% FCs in the presence of 0.1, 1, and 10 μM of Compounds A1, A3, B1, D1 and BKT300-3-c5, using DMSO as a solvent.
# Apoptosis and cell viability were measured using the annexin-V/PI assay.
# U937 cells [3] = assay: Cell cycle by 7-AAD assay in U937 cells; format: cell-based; conditions: U937, 24 hours; for Effect on cell cycle: any of the tested concentrations (0.1, 1 and 10 μM)
# Method: as §3
# Cell cycle was measured using the 7-AAD assay.
# various cancer cells = assay: 7-ADD staining of various cancer cells (cell cycle / apoptosis); format: cell-based; conditions: 1 μM, 24-hour incubation, all tested cells (FIG. 29)
# Method: While further studying the activity of BKT300-3-c5, various cancer cells were incubated with 1 μM BKT300-3-c5, and without it (control), and then stained for 7-ADD.
# RPMI8826 = assay: Inhibition of cell growth in additional cancer cell lines; format: cell-based; conditions: 1.0 Micromolar; RPMI8826, Myeloma
# SU-DHL-4 = assay: as above; format: cell-based; conditions: Homo sapiens; 1.0 Micromolar; SU-DHL-4, DLBCL
# OVCAR3 = assay: as above; format: cell-based; conditions: Homo sapiens, OVCAR-3; 1.0 Micromolar; OVCAR3, Ovarian
# H460 = assay: as above; format: cell-based; conditions: Homo sapiens, NCI-H460; 1.0 Micromolar; H460, Lung
# MV4-11 cells = assay: Annexin-V and Propidium Iodide staining of MV4-11 cells; format: cell-based, human; conditions: 1 μM, 24 hours (FIG. 30)
# Method: In further studies, apoptosis induction by BKT300-3-c5 was established by incubating MV4-11 cells with and without BKT300-3-c5 (1 μM) for 24 hours, followed by staining the cells for Annexin-V and Propidium Iodide (PI).
# K562 = assay: Inhibition of cell growth in additional cancer cell lines; format: cell-based; conditions: Homo sapiens; 1.0 Micromolar; K562, CML
# Farage = assay: as above; format: cell-based; conditions: 1.0 Micromolar, DLBCL
# Toledo = assay: as above; format: cell-based; conditions: Homo sapiens, 1.0 Micromolar, DLBCL
# SU-DHL-6 = assay: as above; format: cell-based; conditions: Homo sapiens; 1.0 Micromolar; SU-DHL-6, DLBCL
# caspase-3 = assay: Cleaved caspase-3 by Western blot and Elisa in AML cell lines NB4, U937 and MV4-11; format: cell-based, human; conditions: 1 μM, 24 hours; NB4, U937 and MV4-11 (FIGS. 31A-C)
# Method: In still further studies, the role of caspase-3 (CASP3) in the BKT300-3-c5-induced apoptosis of AML cell lines NB4, U937 and MV4-11 was tested. Cells were incubated with BKT300-3-c5 (1 μM) for 24 hours, and were then tested for the presence of cleaved using mAb against human cleaved caspase 3 by Western blot and Elisa assay to caspase-3.
# [4] = system: MV4-11, U937, REH, THP-1, NB4, PC-3 and B16-F10 cells; assay: Cancer cell viability assay (PI staining), comparison with IPI-145 in all tested cell lines; format: cell-based; conditions: 24 hours
# Method: as §2
# The effect of BKT300-3-c5 on the viability of various cancer cells has been tested, as described under the “method” section hereinabove, and compared to the effect of IPI-145.
# FIGS. 22A-B, 23A-B, 24A-B and 25A-B present the effect of BKT300-3-c5 and IPI-145 on various leukemic cells: U937, REH, THP-1 and NB4, respectively.
# FIG. 26 presents the effect of BKT300-3-c5 and IPI-145 on prostate cancer PC-3 cells.
# FIG. 27 presents the effect of BKT300-3-c5 and IPI-145 on melanoma B16-F10 cells.
# SKNBE = assay: Inhibition of cell growth in additional cancer cell lines; format: cell-based; conditions: 1.0 Micromolar, Neuroblastoma
# HL60 = assay: as above; format: cell-based; conditions: Homo sapiens, HL-60; 1.0 Micromolar; HL60, AML
# MCP-1 = MCP-1 (Homo sapiens, UniProt P13500); assay: Migration assay: THP-1 cells towards MCP-1 (Transwell); format: cell-based; conditions: 0.1, 0.5, 1 and 10 μM (FIG. 20B)
# Chain of MCP-1 (P13500 24-99): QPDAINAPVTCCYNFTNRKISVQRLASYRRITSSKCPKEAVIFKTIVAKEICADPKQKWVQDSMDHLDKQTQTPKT
# Method: as §1
# To evaluate migration towards MCP-1, JTHP-1 cells were re-suspended in RPMI medium containing 1% fetal calf serum (FCS).
# other bacteria = conditions: Nomura et al., Biol Pharm Bull 2012; cited from earlier work
# Legionella = conditions: cited from earlier work
# metastasis = conditions: animal studies; Smith et al. 2004; cited from earlier work
# [5] = animal studies; Wilson et al. 2011; cited from earlier work
# glioblastoma = conditions: animal studies; Kioi et al. 2010; cited from earlier work
compound,measurement,setting,value
"CCCCCc1cc(OC)ccc1Oc1cc(OC)cc2c1NC(=O)C(CCCCC)C2=O (stereo not shown) [BKT300-11-a5, 6-methoxy-8-(4-methoxy-2-pentylphenoxy)-3-pentylquinoline-2,4(1H,3H)-dione]",Inhibition of SDF-1/CXCR4 mediated migration of Jurkat cells,SDF-1,inhibition
same,Effect on the viability of MV4-11 cells,"[1]; 1.328, 6.64, 13.28 and 26.56 μM (FIGS. 28A-B)",affect viability
"CCC1C(=O)Nc2c(Oc3ccc(OC)cc3OC)cc(OC)cc2C1=O (stereo not shown) [Compound A3, 8-(2,4-dimethoxyphenoxy)-3-ethyl-6-methoxyquinoline-2,4(1H,3H)-dione]",Effect on apoptosis,U937 cells [2],no effect
same,Effect on cell cycle,U937 cells [3],no effect
"C[C@H](Nc1ncnc2nc[nH]c12)c1cc2cccc(Cl)c2c(=O)n1-c1ccccc1 [IPI-145, reference compound]","Apoptotic cell death, 7-ADD staining",various cancer cells,does not affect growth arrest nor apoptosis
same,"Growth arrest (cell cycle), 7-ADD staining",various cancer cells,does not affect growth arrest nor apoptosis
"CCCCCC1C(=O)Nc2c(Oc3ccc(OC)cc3OC)cc(OC)cc2C1=O (stereo not shown) [BKT300-3-c5, 8-(2,4-dimethoxyphenoxy)-6-methoxy-3-pentylquinoline-2,4(1H,3H)-dione]",inhibition at 1 µM,RPMI8826,90.6%
same,inhibition at 1 µM,SU-DHL-4,34%
same,inhibition at 1 µM,OVCAR3,93.7%
same,inhibition at 1 µM,H460,78%
same,"Apoptosis induction, percentage of viable MV4-11 cells",MV4-11 cells,reduction in the percentage of viable cells via apoptosis
same,"Apoptotic cell death, 7-ADD staining",various cancer cells,induce apoptotic cell death
same,"Growth arrest (cell cycle), 7-ADD staining",various cancer cells,arrest the growth at the G2M phase
same,inhibition at 1 µM,K562,71%
same,inhibition at 1 µM,Farage,40%
same,inhibition at 1 µM,Toledo,4%
same,Concentration at which an effect on apoptosis was observed,U937 cells [2],0.1 µM
same,Concentration at which an effect on cell viability was observed,U937 cells [2],0.1 µM
same,inhibition at 1 µM,SU-DHL-6,50%
same,"Inhibiting SDF-1/CXCR4 mediated migration of Jurkat cells, compared to IPI-145","SDF-1; 1, 5, 10 and 20 μM (FIG. 20A)",more effective that IPI-145
same,Inhibition of SDF-1/CXCR4 mediated migration of Jurkat cells,SDF-1,inhibition
same,IC50,"[1]; Homo sapiens, MV4-11, 24 hour-treatment (FIG. 21B), read-out: IC50, viability of MV4-11 AML cells",0.85 µM
same,Cleaved caspase-3 in induced apoptosis,caspase-3,via caspase-3 activation
same,"Reducing the survival of cancer cells, compared to IPI-145",[4],superior effect compared to IPI-145
same,inhibition at 1 µM,SKNBE,73%
same,inhibition at 1 µM,HL60,94.9%
same,Concentration at which cell cycle arrest is demonstrated,"U937 cells [3]; tested 0.1, 1 and 10 μM",0.1 µM
same,"Inhibiting MCP-1 induced migration of THP-1, compared to IPI-145",MCP-1,more effective that IPI-145
"CCCCCC1C(=O)Nc2c(Oc3ccc(OC)cc3)cc(OC)cc2C1=O (stereo not shown) [Compound B1, 6-methoxy-8-(4-methoxyphenoxy)-3-pentylquinoline-2,4(1H,3H)-dione]",Concentration at which an effect on apoptosis was observed,U937 cells [2],1 µM
same,Concentration at which an effect on cell viability was observed,U937 cells [2],1 µM
same,Concentration at which cell cycle arrest is demonstrated,"U937 cells [3]; tested 0.1, 1 and 10 μM",10 µM
same,Concentration at which some effect on cell cycle is already observed,"U937 cells [3]; tested 0.1, 1 and 10 μM",1 µM
"CCCCCC1C(=O)Nc2c(Oc3ccccc3OC)cc(OC)cc2C1=O (stereo not shown) [Compound D1, 6-methoxy-8-(2-methoxyphenoxy)-3-pentylquinoline-2,4(1H,3H)-dione]",Concentration at which an effect on apoptosis was observed,U937 cells [2],0.1 µM
same,Concentration at which an effect on cell viability was observed,U937 cells [2],0.1 µM
same,Concentration at which cell cycle arrest is demonstrated,"U937 cells [3]; tested 0.1, 1 and 10 μM",1 µM
"COc1ccc(Oc2cc(OC)cc3c2NC(=O)CC3=O)c(OC)c1 [Compound A1, 8-(2,4-dimethoxyphenoxy)-6-methoxyquinoline-2,4(1H,3H)-dione]",Effect on apoptosis,U937 cells [2],no effect
same,Effect on cell cycle,U937 cells [3],no effect
"CCCCCC(=O)Cc1cc(O)cc(O)c1Oc1cc(O)cc2cc(CCCCC)oc(=O)c12 [8-(2,4-dihydroxy-6-(2-oxoheptyl)-phenoxy)-6-hydroxy-3-pentyl-1H-isochromen-1-one]",Antibacterial activity against other bacteria,other bacteria,not against other bacteria
same,Antibacterial activity against Legionella,Legionella,potent antibacterial activity
CCCCCc1cc2cc(O)cc(Oc3c(O)cc(O)c(C(=O)O)c3CCCCC)c2c(=O)o1 [BKT400],Inhibition of migration of Jurkat cells towards SDF-1,SDF-1; 1 and 10 μg/ml (FIG. 2C),inhibit
c1cc(CN2CCCNCCNCCCNCC2)ccc1CN1CCCNCCNCCCNCC1 [plerixafor],Effect on metastasis,metastasis,reduce metastasis
same,Effect on opioid-induced hyperalgesia,[5],counteract opioid-induced hyperalgesia
same,Effect on recurrence of glioblastoma,glioblastoma,reduce recurrence of glioblastoma associated with vasculogenesis
